Reference: article PMC10384011, “m-Terphenylamines, Acting as Selective COX-1 Inhibitors, Block Microglia Inflammatory Response and Exert Neuroprotective Activity” (Molecules, 2023)

Tests used:
[1] = test system: BV2 microglia cells; test: LPS-induced activated (ramified) phenotype of BV2 microglia; type: cell-based; details: 3 μM, LPS 1 μg/mL, 24 h
Text: Next, we set out to study the changes in microglia phenotype under this toxicity protocol. As mentioned above, microglia are comprised of variable morphology cells that are always adapting to the surrounding media and, therefore, to physiopathological conditions. Indeed, morphological appearance is well correlated with the different states of microglia activation. The microglia-activated phenotype (M1), which is the classical state of this kind of cell in response to proinflammatory insults such as LPS, is linked with the overexpression of a plethora of cytokines and inflammatory markers, namely TNF, IL-1β, IL-6, MCP-1 or CD11b. All of these markers are commonly associated with morphological changes towards an amoeboid phenotype in primary cultures or in in vivo studies. Nevertheless, it has been recently described that BV2 microglia, as well as macrophages, turn from rounded to spindle-shaped or multipolar phenotypes in response to various M1 proinflammatory stimuli such as LPS/IFNγ or spinal cord injury conditioned media. In this context, we assessed the ability of our compounds to prevent the morphological changes induced by LPS by analyzing the percentage of BV2 ramified cells (multipolar or spindle) over the total BV2 per field following cell incubation with our compounds and 1 μg/mL LPS for 24 h.
(§1) Cultures were seeded into flasks containing supplemented medium and kept at 37 °C in a humidified atmosphere of 5% CO2 and 95% air. For assays, BV-2 cells were subcultured in 48-well plates at a seeding density of 1 × 10^5 cells per well. Cells were treated with LPS (Sigma-Aldrich, Madrid, Spain) for 24 or 48 h before confluence in RPMI with 1% FBS.

[2] = test system: BV2 microglia cells; test: Nitrite release (Griess reaction) in LPS-treated BV2 microglia; type: cell-based; details: LPS 1 μg/mL, basal = 100
Text: The COX-1 inhibition data prompted us to undertake further work on the activity of compounds 3 in a neuroinflammation situation. Once we had verified that the compounds studied were not toxic per se in microglia BV2 cells (see the data in Table S1), we measured the nitrites released to determine the efficacy of our compounds in reducing microglia activation. Nitric oxide is a potent mediator of the classic activated microglia phenotype (M1); in fact, the lack of nitrite release correlated with an anti-inflammatory microglia (M2) phenotype. Therefore, we evaluated the response of the BV2 microglia cells to a challenge of 1 μg/mL LPS. For this purpose, BV2 microglia cells were incubated with LPS, a well-known agonist of the toll-like receptor 4 (TLR4) that causes a neuroinflammatory response, in combination with increasing concentrations of our COX-1 inhibitors (1, 3, and 10 μM). […] Similar results were observed after 48 h of the LPS treatment.
as §1
The NO assay was performed using the previously reported protocols. Briefly, 100 μL of culture supernatants were mixed with the same volume of Griess assay regent (1% sulfanilamide (Sigma Aldrich, Madrid, Spain), 0.1% naphthylethylenediamine dihydrochloride, and 2.5% phosphoric acid). Ten minutes later, the 560-nm absorbance was measured.

[3] = test system: organotypic hippocampal cultures (OHCs); test: Cell death (propidium iodide uptake, CA1) in organotypic hippocampal cultures treated with LPS; type: cell-based, Sprague-Dawley rats; details: LPS 1 μg/mL, 24 h
Description: With these promising data in hand, we selected compound 3b for its study in a more complex preparation. In vivo administration of LPS produces a proinflammatory cascade that causes memory deficits, an increase of inflammatory markers, and impairment of hippocampal glutamatergic transmission, contributing to neuronal death. All of these functional changes have been described to take place mainly in the hippocampus region. Thus, we subjected organotypic hippocampal cultures (OHCs) to LPS (1 μg/mL) to assess the protective effect of COX-1 inhibition. This kind of explant allows us to study the microglia-neuron network in a more complex and physiological model of cerebral insult.
OHCs were conducted on 8–10-day-old Sprague-Dawley rats supplied by the animal facilities of Universidad Autónoma de Madrid (Madrid, Spain). Cultures were prepared according to the methods described by Stoppini et al. with some modifications. […]
Cell death was determined in the CA1 region by staining the OHCs with propidium iodide (PI). Thirty minutes before analyzing fluorescence, slices were incubated with PI (1 µg/mL). Fluorescence was measured in an epifluorescence Olympus BX50WI microscope. […] Fluorescence was measured in each slice using ImageJ.

SMILES: Cc1ccc(-c2cc(N)cc(-c3ccccc3)c2)cc1 [Compound 3b, 4-Methyl-5′-amino-m-terphenyl]
- Reduction of the number of BV2 ramified cells [1]: 60%
- Nitrite Release after 24 h ([2]; 1 μM): 123 ± 8%
- Nitrite Release after 48 h ([2]; 1 μM): 140 ± 14%
- Nitrite Release after 24 h ([2]; 3 μM): 100 ± 4 %
- Nitrite Release after 48 h ([2]; 3 μM): 123 ± 10 %
- Nitrite Release after 24 h ([2]; 10 μM): 105 ± 6 %
- Nitrite Release after 48 h ([2]; 10 μM): 128 ± 10 %
- Cell death (PI uptake in CA1) induced by LPS [3]: reduced cell death induced by LPS almost to basal levels
